Values joined by “and” are separate entries in the source; they are usually repeats but may differ in a detail not shown here. Equal values may be shown once. Toxic doses and inconclusive results are not listed. Non-standard residues stand in square brackets, D forms with d. Residues, ends and D or L forms follow the SMILES beside them. ξ: configuration not given here. ξIva = CCC(C)(N)C(=O)O

For this assay, the system named is CD2F1 mice, L1210 leukemia ip, survival T/C. Put plainly: NCI In Vivo Anticancer Drug Screen. Data for tumor model L1210 Leukemia (intraperitoneal) in CD2F1 (CDF1) mice. The following applies: higher = longer survival. The method in brief:
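Mice carrying a transplanted tumor received test compound or vehicle alone. The value is the measurement in the treated group divided by that in the vehicle-treated control group.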

[1] abbreviates: endpoint: mean survival time, dose: 100.0 mg/kg/injection, schedule: Q04DX002 (ip), vehicle: saline.
Setting [2] is: endpoint: mean survival time, dose: 200.0 mg/kg/injection, schedule: Q04DX002 (ip), vehicle: saline.
The mark [3] stands for this setting: endpoint: mean survival time, dose: 400.0 mg/kg/injection, schedule: Q04DX002 (ip), vehicle: saline.
Where [4] appears, read: endpoint: mean survival time, dose: 100.0 mg/kg/injection, schedule: Q04DX003 (ip), vehicle: saline with Tween-80.
The mark [5] stands for this setting: endpoint: mean survival time, dose: 200.0 mg/kg/injection, schedule: Q04DX003 (ip), vehicle: saline with Tween-80.
The mark [6] stands for this setting: endpoint: mean survival time, dose: 400.0 mg/kg/injection, schedule: Q04DX003 (ip), vehicle: saline with Tween-80.
Where [7] appears, read: endpoint: mean survival time, dose: 50.0 mg/kg/injection, schedule: Q01DX009 (ip), vehicle: saline with Tween-80.
Setting [8] is: endpoint: mean survival time, dose: 100.0 mg/kg/injection, schedule: Q01DX009 (ip), vehicle: saline with Tween-80.
Where [9] appears, read: endpoint: mean survival time, dose: 200.0 mg/kg/injection, schedule: Q01DX009 (ip), vehicle: saline with Tween-80.
The mark [10] stands for this setting: endpoint: mean survival time, dose: 400.0 mg/kg/injection, schedule: Q01DX009 (ip), vehicle: saline with Tween-80.

Regarding `COc1ccc2c(c1)C1(C)C/C(=C\c3ccoc3)C(=O)C(C)C1CC2` (centres undefined), the T/C was 94 % of control (endpoint: mean survival time, dose: 100.0 mg/kg/injection, schedule: Q01DX001 (ip), vehicle: saline); 94 % of control (endpoint: mean survival time, dose: 200.0 mg/kg/injection, schedule: Q01DX001 (ip), vehicle: saline); 102 % of control (endpoint: mean survival time, dose: 400.0 mg/kg/injection, schedule: Q01DX001 (ip), vehicle: saline).

In the case of `O=C(O)CC(NC(=O)CP(=O)(O)O)C(=O)O.[NH-]C1CCCCC1[NH-].[Pt+2]` (centres undefined), the T/C by setting is: (endpoint: mean survival time, dose: 3.12 mg/kg/injection, schedule: Q01DX009 (ip), vehicle: dextrose) 238 % of control; (endpoint: mean survival time, dose: 6.25 mg/kg/injection, schedule: Q01DX009 (ip), vehicle: dextrose) 274 % of control; (endpoint: mean survival time, dose: 7.9 mg/kg/injection, schedule: Q04DX003 (ip), vehicle: saline) 122 % of control; (endpoint: mean survival time, dose: 8.0 mg/kg/injection, schedule: Q04DX003 (ip), vehicle: dextrose) 231 % of control; (endpoint: mean survival time, dose: 11.9 mg/kg/injection, schedule: Q04DX003 (ip), vehicle: dextrose) 280 % of control; (endpoint: mean survival time, dose: 12.0 mg/kg/injection, schedule: Q04DX003 (ip), vehicle: dextrose) 174 % of control. The T/C runs as follows: (endpoint: mean survival time, dose: 12.5 mg/kg/injection, schedule: Q01DX009 (ip), vehicle: dextrose) 92 % of control; (endpoint: mean survival time, dose: 17.89 mg/kg/injection, schedule: Q04DX003 (ip), vehicle: dextrose) 237 % of control; (endpoint: mean survival time, dose: 18.0 mg/kg/injection, schedule: Q04DX003 (ip), vehicle: dextrose) 225 % of control; (endpoint: mean survival time, dose: 26.7 mg/kg/injection, schedule: Q04DX003 (ip), vehicle: dextrose) 184 % of control; (endpoint: mean survival time, dose: 26.7 mg/kg/injection, schedule: Q04DX003 (ip), vehicle: saline) 260 % of control; (endpoint: mean survival time, dose: 40.0 mg/kg/injection, schedule: Q04DX003 (ip), vehicle: dextrose) 265 % of control. Besides, the T/C reads like this: (endpoint: mean survival time, dose: 40.0 mg/kg/injection, schedule: Q04DX003 (ip), vehicle: saline) 298 % of control; (endpoint: mean survival time, dose: 60.0 mg/kg/injection, schedule: Q04DX003 (ip), vehicle: dextrose) 194 % of control; (endpoint: mean survival time, dose: 60.0 mg/kg/injection, schedule: Q04DX003 (ip), vehicle: saline) 306 % of control; (endpoint: mean survival time, dose: 90.0 mg/kg/injection, schedule: Q04DX003 (ip), vehicle: dextrose) 169 % of control; (endpoint: median survival time, dose: 2.0 mg/kg/injection, schedule: Q01DX009 (ip), vehicle: dextrose) 209 % of control; (endpoint: median survival time, dose: 4.0 mg/kg/injection, schedule: Q01DX009 (ip), vehicle: dextrose) 262 % of control. Further, the T/C (endpoint: median survival time, dose: 9.0 mg/kg/injection, schedule: Q01DX009 (ip), vehicle: dextrose) was 177 % of control; the T/C (endpoint: median survival time, dose: 10.0 mg/kg/injection, schedule: Q01DX001 (ip), vehicle: dextrose) was 182 % of control; the T/C (endpoint: median survival time, dose: 15.0 mg/kg/injection, schedule: Q01DX001 (ip), vehicle: other) is 201 % of control; the T/C (endpoint: median survival time, dose: 17.98 mg/kg/injection, schedule: Q04DX003 (ip), vehicle: dextrose) was 208 % of control; the T/C (endpoint: median survival time, dose: 20.0 mg/kg/injection, schedule: Q01DX001 (ip), vehicle: dextrose) was 206 % of control; the T/C (endpoint: median survival time, dose: 27.0 mg/kg/injection, schedule: Q04DX003 (ip), vehicle: dextrose) was 220 % of control. Besides, the T/C (endpoint: median survival time, dose: 30.0 mg/kg/injection, schedule: Q01DX001 (ip), vehicle: other) is 681 % of control and the T/C (endpoint: median survival time, dose: 40.0 mg/kg/injection, schedule: Q01DX001 (ip), vehicle: dextrose) was 188 % of control.

As for `Cc1c([O-])[n+](Cc2ccccc2)nn1C`, the T/C by setting is: (endpoint: mean survival time, dose: 12.5 mg/kg/injection, schedule: Q01DX009 (ip), vehicle: water) 97 % of control; (endpoint: mean survival time, dose: 25.0 mg/kg/injection, schedule: Q01DX009 (ip), vehicle: water) 98 % of control; (endpoint: mean survival time, dose: 50.0 mg/kg/injection, schedule: Q01DX009 (ip), vehicle: water) 95 % of control; (endpoint: mean survival time, dose: 100.0 mg/kg/injection, schedule: Q01DX009 (ip), vehicle: water) 97 % of control; (endpoint: mean survival time, dose: 200.0 mg/kg/injection, schedule: Q01DX009 (ip), vehicle: water) 93 % of control.

Turning to `NNC(=O)CC(O)(C1CC1)C1CC1`, the T/C reads like this: under setting [1], 112 % of control; under setting [2], 96 % of control; under setting [3], 100 % of control.

Regarding `N#[N+]c1c([O-])[nH]c2ccccc12`, the T/C runs as follows: (endpoint: median survival time, dose: 50.0 mg/kg/injection, schedule: Q04DX002 (ip), vehicle: saline with Tween-80) 110 % of control; (endpoint: median survival time, dose: 100.0 mg/kg/injection, schedule: Q04DX002 (ip), vehicle: saline with Tween-80) 110 % of control; (endpoint: median survival time, dose: 200.0 mg/kg/injection, schedule: Q04DX002 (ip), vehicle: saline with Tween-80) 120 % of control.

Turning to `Cc1cc(Cl)cc([N+](=O)[O-])c1`, the T/C is 92 % of control under setting [4], 88 % of control under setting [5] and 87 % of control under setting [6].

Turning to `C1=CC2OC1c1ccccc12`, the T/C reads like this: (endpoint: mean survival time, dose: 100.0 mg/kg/injection, schedule: Q04DX003 (ip), vehicle: other) 93 % of control; (endpoint: mean survival time, dose: 200.0 mg/kg/injection, schedule: Q04DX003 (ip), vehicle: other) 98 % of control; (endpoint: mean survival time, dose: 400.0 mg/kg/injection, schedule: Q04DX003 (ip), vehicle: other) 93 % of control.

Regarding `CCOC(CC)C(O)(c1ccc(N(C)C)cc1)c1ccc(N(C)C)cc1` (centres undefined), the T/C was 97 % of control under setting [4], 102 % of control under setting [5] and 94 % of control under setting [6].

Consider `ON=c1c2ccccc2oc2ccccc12`, for which the T/C was 92 % of control (endpoint: mean survival time, dose: 100.0 mg/kg/injection, schedule: Q04DX002 (ip), vehicle: Klucel (hydroxypropylcellulose) (HPC)) and 100 % of control (endpoint: mean survival time, dose: 200.0 mg/kg/injection, schedule: Q04DX002 (ip), vehicle: Klucel (hydroxypropylcellulose) (HPC)).

For the compound `CCOc1cc2c(cc1C(C)c1ccc(OC)cc1)OCO2` (centres undefined), the T/C (endpoint: median survival time, dose: 12.5 mg/kg/injection, schedule: Q01DX009 (ip), vehicle: distilled water + alcohol) is 103 % of control; the T/C (endpoint: median survival time, dose: 25.0 mg/kg/injection, schedule: Q01DX009 (ip), vehicle: distilled water + alcohol) was 93 % of control and 104 % of control; the T/C (endpoint: median survival time, dose: 50.0 mg/kg/injection, schedule: Q01DX009 (ip), vehicle: distilled water + alcohol) was 115 % of control and 98 % of control; the T/C (endpoint: median survival time, dose: 100.0 mg/kg/injection, schedule: Q01DX009 (ip), vehicle: distilled water + alcohol) is 98 % of control and 108 % of control; the T/C (endpoint: median survival time, dose: 200.0 mg/kg/injection, schedule: Q01DX009 (ip), vehicle: distilled water + alcohol) was 111 % of control.

As for `CCC(C)(NC(=O)CN)C(=O)O` (centres undefined) (H-Gly-[ξIva]-OH), the T/C under setting [1] was 90 % of control, the T/C under setting [2] was 93 % of control and the T/C under setting [3] is 90 % of control.

As to `CCOC(=O)NNC(=O)OCC`, the T/C is, setting by setting: (endpoint: mean survival time, dose: 12.5 mg/kg/injection, schedule: Q01DX009 (ip), vehicle: saline with Tween-80) 97 % of control; (endpoint: mean survival time, dose: 12.5 mg/kg/injection, schedule: Q01DX009 (ip), vehicle: saline) 90 % of control; (endpoint: mean survival time, dose: 25.0 mg/kg/injection, schedule: Q01DX009 (ip), vehicle: saline with Tween-80) 96 % of control; (endpoint: mean survival time, dose: 25.0 mg/kg/injection, schedule: Q01DX009 (ip), vehicle: saline) 101 % of control; under setting [7], 102 % of control; (endpoint: mean survival time, dose: 50.0 mg/kg/injection, schedule: Q01DX009 (ip), vehicle: saline) 105 % of control.

For the compound `CCCCN1CCCC(O)C1` (centres undefined), the T/C under setting [7] is 100 % of control, the T/C under setting [8] was 100 % of control and the T/C under setting [9] was 103 % of control.

For `O=C(O)CNC(=O)COc1ccccc1`, the T/C under setting [8] is 101 % of control; the T/C under setting [4] is 101 % of control; the T/C under setting [9] was 88 % of control; the T/C under setting [5] is 93 % of control; the T/C under setting [10] is 90 % of control; the T/C under setting [6] was 101 % of control.

Take `O=Cc1ccc(/C=C2\C=Cc3ccccc32)cc1`: the T/C reads like this: under setting [8], 101 % of control; under setting [9], 94 % of control; under setting [10], 103 % of control.

With `CNP1(N(C)C)=NP(NC)(N(C)C)=NP(NC)(N(C)C)=N1` (centres undefined), the T/C runs as follows: (endpoint: mean survival time, dose: 100.0 mg/kg/injection, schedule: Q04DX003 (ip), vehicle: saline) 98 % of control; (endpoint: mean survival time, dose: 200.0 mg/kg/injection, schedule: Q04DX003 (ip), vehicle: saline) 98 % of control.

The values above are taken from PubChem BioAssay AID256 (DTP/NCI, 2004).
